Converted amounts (≈) assume the structure as drawn. Where two headings read alike, the source gives them in different places. Marks after values point to notes of the source that are not given here.
Legend:
[1] = tested on: Pseudomonas aeruginosa NIH; assay: Microdilution method (MIC, MBC); type: cell-based; settings: for MBC / MIC: Pseudomonas aeruginosa; for MBC: read-out: MBC (minimum bactericidal concentration); for MIC: read-out: MIC (minimum inhibitory concentration); for MBC/MIC: 1 suggests bactericidal
Experimental: (§1) The strains Escherichia coli (ATCC 25922), Pseudomonas aeruginosa NIH, Listeria monocytogenes (ATCC 13932), and Staphylococcus aureus (ATCC 29213) were used. After overnight incubation at 30 °C, the inhibition zone diameters (IZD) were measured in millimeters (mm). Next, the microdilution method served to assess the minimum inhibitory concentration (MIC) and minimum bactericidal concentration (MBC) (Bouyahya et al. [2020a], [b]).

[2] = tested on: Listeria monocytogenes (ATCC 13932); assay: Microdilution method (MIC, MBC); type: cell-based; settings: for MBC / MIC: Listeria monocytogenes; for MBC/MIC: 1 suggests bactericidal
Experimental: as §1

[3] = tested on: Staphylococcus aureus (ATCC 29213); assay: Microdilution method (MIC, MBC); type: cell-based
Experimental: as §1

[4] = tested on: Escherichia coli (ATCC 25922); assay: Microdilution method (MIC, MBC); type: cell-based
Experimental: as §1

[5] = molecular target: T1, α-amylase (Bacillus licheniformis, UniProt P06278); assay: α-Amylase inhibitory test; type: biochemical
T1 construct: purchased
Experimental: (§2) The α-glucosidase from Saccharomyces cerevisiae and the α-amylase from Bacillus licheniformis were also obtained from reliable commercial sources. Additional reagents were carefully selected from reputable suppliers. Mueller–Hinton agar was sourced from Biokar in Beauvais, France. All other chemicals used are of analytical grade.
Initially, 250 μL of each sample was mixed with 250 μL of sodium phosphate buffer (SPB) (0.02 M & pH = 6.9) and α-amylase enzyme (240 U/mL). The blend was then incubated at 37 °C/20 min. Then, a 1% starch solution (250 μL) in SPB was added, followed by incubation at 37 °C/15 min. Thereafter, 1 mL of dinitrosalicylic acid (DNS) was also added, and the mix was heated for 10 min (Bouyahya et al. [2019a], [b]; Omari et al. [2023]). The solution was then diluted with 2 mL of sterile water, and the OD (540 nm) was measured. […] The % of inhibition was calculated using the formula: [drawing 1]

[6] = molecular target: elastase (Sus scrofa, UniProt P00772); assay: Elastase inhibitory assay; type: biochemical; settings: 410 nm
Experimental: Then, 200 µL of an elastase solution prepared in Tris–HCl buffer (0.2 M, pH 8.0) was mixed with 50 µL of each sample. Following a 15-min incubation at 25 °C, 200 µL of N-succinyl-Ala-Ala-p-nitroanilide solution was added, and the reaction mixtures were homogenized. Absorbances were recorded at 410 nm after an additional 20-min incubation at 25 °C. The data obtained were used to determine the IC50 and to calculate the percent inhibition of elastase.

[7] = molecular target: T2, α-glucosidase (Saccharomyces cerevisiae, UniProt P53341); assay: α-Glucosidase inhibitory test; type: biochemical
T2 construct: purchased
Experimental: as §2
The inhibition of α-glucosidase action was assessed using the pNPG substrate as previously detailed (Bouyahya et al. [2021]). A mixture of 200 μL of the samples and 100 μL SPB (0.1 M & pH = 6.7), mixed with α-glucosidase (0.1 U/mL), underwent incubation at 37 °C/10 min. Next, 200 μL of pNPG (1 mM) solution in SPB (0.1 M & pH = 6.7) was added, then incubated at 37 °C/30 min. The measurement of α-glucosidase inhibition was done by measuring the OD (405 nm) after adding 1 mL of Na2CO3 (0.1 M).

[8] = ABTS radical scavenging activity
Experimental: The ABTS cation radical was generated from the reaction between ABTS solution and potassium persulfate with Trolox as a positive control. The assay was performed in triplicate and expressed in IC50 (μg/mL) (El Omari et al. [2023]).

[9] = DPPH test; settings: radical scavenging, 30 min, 517 nm
Experimental: This assay used DPPH radical to assess the free radical-scavenging ability. Samples dissolved in methanol were mixed with a methanolic solution of DPPH and incubated, in triplicate, at ambient temperature for 30 min (El Omari et al. [2023]). Absorbance was read at 517 nm, and the percentage of DPPH radical scavenging and the inhibition in IC50 (μg/mL) were calculated. Trolox served as a positive control.

[10] = Reducing ferric power test (FRAP); settings: 700 nm
Experimental: CEEO, carvacrol, menthol, and tricosane were mixed with phosphate buffer and potassium ferricyanide solution, incubated, and treated with trichloroacetic acid. After centrifugation, the upper layer was analyzed for absorbance (700 nm) with Trolox serving as a reference. The assay was done in triplicate, and the IC50 (μg/mL) was calculated (El Omari et al. [2023]).

[11] = tested on: Pseudomonas aeruginosa NIH; assay: Disk diffusion method (inhibition zone diameter); type: cell-based; settings: P. aeruginosa, Gram-negative
Experimental: as §1

[12] = tested on: Listeria monocytogenes (ATCC 13932); assay: Disk diffusion method (inhibition zone diameter); type: cell-based; settings: L. monocytogenes, Gram-positive
Experimental: as §1

[13] = tested on: Staphylococcus aureus (ATCC 29213); assay: Disk diffusion method (inhibition zone diameter); type: cell-based; settings: S. aureus, Gram-positive
Experimental: as §1

[14] = tested on: Escherichia coli (ATCC 25922); assay: Disk diffusion method (inhibition zone diameter); type: cell-based; settings: E. coli, Gram-negative
Experimental: as §1

[15] = molecular target: tyrosinase (Agaricus bisporus, UniProt C7FF04); design: method as in El Khoury et al. [2019]; settings: carvacrol from Origanum EOs; ref El Khoury et al. [2019]; cited from earlier work
[16] = ATCC13932, L. monocytogenes, read-out: MBC (minimum bactericidal concentration)
[17] = ATCC13932, L. monocytogenes, read-out: MIC (minimum inhibitory concentration)
[18] = ATCC29213, S. aureus, read-out: MBC (minimum bactericidal concentration)
[19] = ATCC29213, S. aureus, read-out: MIC (minimum inhibitory concentration)
[20] = ATCC25922, E. coli, read-out: MBC (minimum bactericidal concentration)
[21] = ATCC25922, E. coli, read-out: MIC (minimum inhibitory concentration)
[22] = Elastase IC50, N-succinyl-Ala-Ala-p-nitroanilide

T2 sequence (P53341 whole entry): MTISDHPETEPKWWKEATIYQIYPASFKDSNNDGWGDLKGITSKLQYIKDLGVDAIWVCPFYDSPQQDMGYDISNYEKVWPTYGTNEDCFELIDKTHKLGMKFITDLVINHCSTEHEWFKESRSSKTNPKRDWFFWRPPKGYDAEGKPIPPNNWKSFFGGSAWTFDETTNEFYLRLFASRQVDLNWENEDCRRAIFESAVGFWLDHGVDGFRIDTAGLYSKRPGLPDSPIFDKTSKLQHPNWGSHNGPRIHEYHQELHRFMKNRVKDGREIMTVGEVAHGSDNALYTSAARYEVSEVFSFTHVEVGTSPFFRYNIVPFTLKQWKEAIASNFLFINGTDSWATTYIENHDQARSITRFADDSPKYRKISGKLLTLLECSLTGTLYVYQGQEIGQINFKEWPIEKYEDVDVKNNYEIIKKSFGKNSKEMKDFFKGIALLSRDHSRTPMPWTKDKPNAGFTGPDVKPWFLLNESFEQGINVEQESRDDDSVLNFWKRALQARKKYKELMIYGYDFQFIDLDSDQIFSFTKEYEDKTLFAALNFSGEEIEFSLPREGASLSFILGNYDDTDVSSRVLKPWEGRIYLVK
Chain of elastase (P00772 27-266): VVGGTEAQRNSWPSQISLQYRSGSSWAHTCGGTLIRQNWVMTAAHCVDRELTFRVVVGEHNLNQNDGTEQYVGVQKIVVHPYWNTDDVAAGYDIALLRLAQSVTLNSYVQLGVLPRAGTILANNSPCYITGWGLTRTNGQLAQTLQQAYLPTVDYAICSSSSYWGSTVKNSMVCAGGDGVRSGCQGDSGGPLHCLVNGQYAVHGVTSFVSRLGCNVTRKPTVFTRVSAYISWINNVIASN
T1 sequence (P06278 30-512): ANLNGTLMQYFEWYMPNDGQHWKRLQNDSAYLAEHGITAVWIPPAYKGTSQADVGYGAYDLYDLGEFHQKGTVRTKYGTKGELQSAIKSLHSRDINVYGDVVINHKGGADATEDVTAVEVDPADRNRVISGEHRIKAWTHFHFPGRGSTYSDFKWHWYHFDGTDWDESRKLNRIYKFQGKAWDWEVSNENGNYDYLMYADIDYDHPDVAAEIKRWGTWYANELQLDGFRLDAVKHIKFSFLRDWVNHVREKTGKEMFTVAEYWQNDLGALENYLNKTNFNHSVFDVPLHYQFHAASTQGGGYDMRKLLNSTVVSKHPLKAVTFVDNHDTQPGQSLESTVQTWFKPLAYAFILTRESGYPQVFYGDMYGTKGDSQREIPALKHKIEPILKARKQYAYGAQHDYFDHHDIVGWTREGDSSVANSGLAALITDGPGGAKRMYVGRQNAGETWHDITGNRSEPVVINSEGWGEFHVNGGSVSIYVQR
Chain of tyrosinase (C7FF04 1-392): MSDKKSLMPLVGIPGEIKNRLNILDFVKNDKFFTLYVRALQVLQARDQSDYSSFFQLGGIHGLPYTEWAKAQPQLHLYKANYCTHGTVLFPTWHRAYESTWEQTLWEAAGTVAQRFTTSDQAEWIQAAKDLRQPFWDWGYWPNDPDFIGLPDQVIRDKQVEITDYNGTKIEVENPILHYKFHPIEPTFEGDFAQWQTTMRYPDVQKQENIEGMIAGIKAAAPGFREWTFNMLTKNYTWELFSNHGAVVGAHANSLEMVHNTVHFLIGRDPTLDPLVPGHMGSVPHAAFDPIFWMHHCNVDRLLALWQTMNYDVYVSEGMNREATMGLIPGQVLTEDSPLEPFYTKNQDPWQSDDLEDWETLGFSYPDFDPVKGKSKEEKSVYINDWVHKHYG

| SMILES | MBC ([1]; P. aeruginosa) | MIC ([1]; P. aeruginosa) | MBC [2, 16] | MIC [2, 17] | MBC [3, 18] | MIC [3, 19] | MBC [4, 20] | MIC [4, 21] | IC50 [5] | MBC/MIC ([1]; P. aeruginosa) | MBC/MIC ([2]; L. monocytogenes) | IC50 [7] | ABTS IC50 [8] | DPPH IC50 [9] | FRAP IC50 [10] | IZD (inhibition zone diameter) [11] | IZD (inhibition zone diameter) [12] | IZD (inhibition zone diameter) [13] | IZD (inhibition zone diameter) [14] | IC50 [6, 22] | also measured |
| --- | --- | --- | --- | --- | --- | --- | --- | --- | --- | --- | --- | --- | --- | --- | --- | --- | --- | --- | --- | --- | --- |
| O=C(N[C@H](CO)[C@H](O)c1ccc([N+](=O)[O-])cc1)C(Cl)Cl [Chloramphenicol, reference compound] | 64 µg/mL (≈ 198 µM) | 64 µg/mL (≈ 198 µM) | 32 µg/mL (≈ 99 µM) | 16 µg/mL (≈ 49.5 µM) | 32 µg/mL (≈ 99 µM) | 8 µg/mL (≈ 24.8 µM) | 32 µg/mL (≈ 99 µM) | 8 µg/mL (≈ 24.8 µM) | – | – | – | – | – | – | – | – | – | – | – | – | – |
| CCCCCCCCCCCCCCCCCCCCCCC [Tricosane, tricosane] | 0.5 µg/mL (≈ 1.54 µM) | 0.5 µg/mL (≈ 1.54 µM) | 0.25 µg/mL (≈ 0.77 µM) | 0.25 µg/mL (≈ 0.77 µM) | 0.5 µg/mL (≈ 1.54 µM) | 0.125 µg/mL (≈ 0.385 µM) | 1 µg/mL (≈ 3.08 µM) | 0.25 µg/mL (≈ 0.77 µM) | 1.19 mM | 1 | 1 | 0.592 mM | 120.34 ± 2.97 µg/mL | 91.03 ± 0.3^b µg/mL | 103.9 ± 2.48 µg/mL | 17 ± 2.51^b mm | 31.67 ± 4.04^b mm | 29 ± 4.58^a mm | 20.67 ± 2.08^C mm | – | IC50 ([6]; N-succinyl-Ala-Ala-p-nitroanilide, read-out: Elastase IC50 (converted)): 384 µM |
| Cc1c(C)c2c(c(C)c1O)CCC(C)(C(=O)O)O2 (stereo not shown) [Trolox, reference compound] | – | – | – | – | – | – | – | – | – | – | – | – | 55.25 ± 4.19^b µg/mL | 34.12 ± 2.13^h µg/mL | 54.74 ± 3.85^f µg/mL | – | – | – | – | – | – |
| CC1CCC(C(C)C)C(O)C1 (stereo not shown) [Menthol, menthol] | 1 µg/mL (≈ 6.4 µM) | 0.25 µg/mL (≈ 1.6 µM) | 0.5 µg/mL (≈ 3.2 µM) | 0.25 µg/mL (≈ 1.6 µM) | 1 µg/mL (≈ 6.4 µM) | 0.5 µg/mL (≈ 3.2 µM) | 2 µg/mL (≈ 12.8 µM) | 0.5 µg/mL (≈ 3.2 µM) | 3.02 mM | – | – | 1.17 mM | 71.76 ± 3.16^a µg/mL | 58.89 ± 4.03^a µg/mL | 57.93 ± 15.63^f µg/mL | 18 ± 4.5^b mm | 26.33 ± 1.52^b mm | 32 ± 2.64^a mm | 14 ± 2^a mm | 717 µM | – |
| Cc1ccc(C(C)C)cc1O [Carvacrol, carvacrol] | – | – | – | – | – | – | – | – | 3.77 mM | 1 | 1 | 1.34 mM | 81.41 ± 4.31^b µg/mL | 48.06 ± 4.31^h µg/mL | 59.96 ± 2.60^f µg/mL | 29 ± 2.64^c mm | 33 ± 2.64^a mm | 35.33 ± 1.52^a mm | 31.33 ± 2.51^b mm | 830 µM | MBC [1]: 0.5 µg/mL (≈ 3.33 µM); MIC [1]: 0.5 µg/mL (≈ 3.33 µM); MBC ([2]; ATCC13932, read-out: MBC (minimum bactericidal concentration)): 0.125 µg/mL (≈ 0.832 µM); MIC ([2]; ATCC13932, read-out: MIC (minimum inhibitory concentration)): 0.125 µg/mL (≈ 0.832 µM); MBC ([3]; ATCC29213, read-out: MBC (minimum bactericidal concentration)): 0.025 µg/mL (≈ 0.166 µM); MIC ([3]; ATCC29213, read-out: MIC (minimum inhibitory concentration)): 0.0125 µg/mL (≈ 0.0832 µM); MBC ([4]; ATCC25922, read-out: MBC (minimum bactericidal concentration)): 0.25 µg/mL (≈ 1.66 µM); MIC ([4]; ATCC25922, read-out: MIC (minimum inhibitory concentration)): 0.125 µg/mL (≈ 0.832 µM); tyrosinase inhibition [15]: 56.55% |

— PMC12540964 (AMB Express, 2025)
